Test: method code SF, from PMID: 3778562

C[C@@H]1O[C@@H](Oc2c(-c3ccc(O)c(O)c3)oc3cc(O)cc(O)c3c2=O)[C@H](O)[C@H](O)[C@H]1O gave a logP of 1.78.
Compound CCCCCCCO[C@H]1Cc2c(O)cc(O)cc2O[C@@H]1c1ccc(O)c(O)c1 has a logP of 4.2.
In the case of O=c1cc(-c2ccc(O)c(O)c2)oc2cccc(O)c12, the logP is reported as 3.31.
NCCCOC1Cc2c(O)cc(O)cc2OC1c1ccc(O)c(O)c1 (configuration not stated) showed a logP of 0.52.
With Oc1cc(O)c2c(c1)OC(c1ccc(O)c(O)c1)C(O)C2O (configuration not stated) the logP was 0.95.
O=c1c(O)c(-c2ccc(O)cc2)oc2cc(O)cc(O)c12 showed a logP of 3.39.
Work on Oc1cc(O)c2c(c1)OC(c1ccc(O)c(O)c1)C(OCCCc1ccccc1)C2 (configuration not stated) yielded a logP of 3.78.
Compound CCCCCCCCCCCCO[C@H]1Cc2c(O)cc(O)cc2O[C@@H]1c1ccc(O)c(O)c1 has a logP of 6.79.
With O=C(Cc1ccccc1)O[C@H]1Cc2c(O)cc(O)cc2O[C@@H]1c1ccc(O)c(O)c1 the logP was 3.09.
With O=C(OC1Cc2c(O)cc(O)cc2OC1c1ccc(O)c(O)c1)c1ccc(O)c(O)c1 (configuration not stated) the logP was 2.45.
O=C1CC(c2ccc(O)cc2)Oc2cc(O)cc(O)c21 (stereo in doubt) gave a logP of 2.52.
Compound O=c1c(O)c(-c2ccc(O)cc2)oc2cc(O)ccc12 has a logP of 3.02.
CCCCO[C@H]1Cc2c(O)cc(O)cc2O[C@@H]1c1ccc(O)c(O)c1 gave a logP of 2.64.
In the case of O=C1C[C@@H](c2ccc(O)c(O)c2)Oc2cccc(O)c21, the logP is reported as 2.81.
COc1ccc([C@@H]2CC(=O)c3c(O)cc(O)cc3O2)cc1O gave a logP of 2.6.
O=c1c(O)c(-c2ccc(O)cc2O)oc2cc(O)cc(O)c12 gave a logP of 2.61.
In the case of CO[C@H]1Cc2c(O)cc(O)cc2O[C@@H]1c1ccc(O)c(O)c1, the logP is reported as 1.
Work on O=C(O[C@H]1Cc2c(O)cc(O)cc2O[C@@H]1c1ccc(O)c(O)c1)c1ccccc1 yielded a logP of 3.44.
O=c1c(O)c(-c2ccc(O)c(O)c2)oc2cc(O)ccc12 gave a logP of 2.53.
O=C(O[C@H]1Cc2c(O)cc(O)cc2O[C@@H]1c1ccc(O)c(O)c1)c1ccc(F)cc1 gave a logP of 3.64.
CCCC(=O)O[C@H]1Cc2c(O)cc(O)cc2O[C@@H]1c1ccc(O)c(O)c1 showed a logP of 2.47.
O=c1cc(-c2ccccc2)oc2cc(O)cc(O)c12 showed a logP of 3.52.
CCCCCCCCCCCCCCCCO[C@H]1Cc2c(O)cc(O)cc2O[C@@H]1c1ccc(O)c(O)c1 gave a logP of 8.87.
For O=c1cc(-c2ccc(O)c(O)c2)oc2cc(O)ccc12, the logP was 1.94.
COc1ccc(-c2oc3cc(O)cc(O)c3c(=O)c2O)cc1 showed a logP of 3.97.
N#CCCO[C@H]1Cc2c(O)cc(O)cc2O[C@@H]1c1ccc(O)c(O)c1 gave a logP of 0.96.
O=C(O)CCC(=O)O[C@H]1Cc2c(O)cc(O)cc2O[C@@H]1c1ccc(O)c(O)c1 gave a logP of 1.41.
Oc1cc(O)c2c(c1)O[C@@H](c1ccc(O)c(O)c1)C(OCO[C@@H]1Cc3c(O)cc(O)cc3O[C@H]1c1ccc(O)c(O)c1)C2 (some centres not stated) gave a logP of 2.15.
C[C@@H]1O[C@@H](O[C@H]2[C@H](Oc3cc(O)c4c(c3)O[C@H](c3ccc(O)cc3)CC4=O)O[C@H](CO)[C@@H](O)[C@@H]2O)[C@H](O)[C@H](O)[C@H]1O showed a logP of -0.44.
In the case of O=C1C[C@@H](c2cccc(O)c2)Oc2cc(O)cc(O)c21, the logP is reported as 2.51.
COc1ccc(-c2cc(=O)c3c(O)cc(O[C@@H]4O[C@H](CO[C@@H]5O[C@@H](C)[C@H](O)[C@@H](O)[C@H]5O)[C@@H](O)[C@H](O)[C@H]4O)cc3o2)cc1O gave a logP of 0.14.
CCCCCCCCCCCCCCCC(=O)O[C@H]1Cc2c(O)cc(O)cc2O[C@@H]1c1ccc(O)c(O)c1 gave a logP of 8.7.
Compound O=C1C[C@@H](c2ccc(O)c(O)c2)Oc2cc(O)cc(O)c21 has a logP of 2.02.
For Cc1cc(C)c2c(c1)O[C@H](c1ccc(C)c(C)c1)[C@@H](O)C2, the logP was 3.1.
In the case of O=C(Nc1ccccc1)OC1Cc2c(O)cc(O)cc2OC1c1ccc(O)c(O)c1 (configuration not stated), the logP is reported as 3.05.
COc1ccc(-c2oc3ccccc3c(=O)c2O)cc1OC showed a logP of 4.17.
Work on COc1ccc(-c2cc(=O)c3c(O)cc(O)cc3o2)cc1O yielded a logP of 3.1.
CCCO[C@H]1Cc2c(O)cc(O)cc2O[C@@H]1c1ccc(O)c(O)c1 gave a logP of 2.12.
For O=c1c(O)c(-c2cccc(O)c2)oc2cc(O)ccc12, the logP was 2.51.
O=c1cc(-c2ccc(O)cc2)oc2cc(O)cc(O)c12 showed a logP of 3.02.
In the case of CCCCCCCCCCCCCCCCCCO[C@H]1Cc2c(O)cc(O)cc2O[C@@H]1c1ccc(O)c(O)c1, the logP is reported as 9.91.
CCCCCCCCCC(=O)O[C@H]1Cc2c(O)cc(O)cc2O[C@@H]1c1ccc(O)c(O)c1 gave a logP of 5.58.
O=C1C[C@@H](c2ccc(O)cc2)Oc2cc(O[C@H]3O[C@@H](CO)[C@H](O)[C@@H](O)[C@@H]3O)cc(O)c21 gave a logP of -0.44.
With CC(=O)Oc1ccccc1C(=O)OC1Cc2c(O)cc(O)cc2OC1c1ccc(O)c(O)c1 (configuration not stated) the logP was 2.87.
COc1cc(OC)c2c(c1)OC(c1ccc(OC)c(OC)c1)C(OC)C2 (configuration not stated) gave a logP of 3.68.
Work on COc1cc(OC)c2c(c1)O[C@H](c1ccc(OC)c(OC)c1)[C@@H](O)C2 yielded a logP of 3.1.
With O=C1C[C@@H](c2ccc(O)c(O)c2)Oc2cc(O)ccc21 the logP was 1.94.

— the SangsterLogP compilation
